According to patent publication US4435404A, “Carbostyril derivatives” (priority 1980, dated 1984):

Legend:
[1] = test system: ADP-induced aggregation in rabbit platelet; test: Inhibition effect on ADP-induced aggregation in rabbit platelet; format: cell-based; conditions: Oryctolagus cuniculus, Platelet
How it was run: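 Citrated rabbit PRP was diluted with PPP to 300,000 platelets/mm^3 for the ADP test or 450,000/mm^3 for the collagen test. Samples were preincubated with compound for 1 min at 37 °C before adding inducer: ADP solution at 7.5×10^-5 M (stock) or collagen supernatant. Light-transmittance aggregation was recorded at 1,100 rpm stirring, and percent inhibition was calculated against control aggregation rate, with acetylsalicylic acid as reference.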

bastard dog = test: Increasing effect of cerebral blood flow; format: in vivo; conditions: dosage 100 μg/kg, profunda femoris vein
Description: Thus, a bastard dog (male, 12-20 kg of body weight) was fixed in a prone (position) and was anesthetized with 20 mg/kg of pentobarbital sodium and made forced breathing to kept the frequency of respiration at 20 times/minutes. Then, the skull was bared and the surface bone was removed to expose the venous sinus by using grinder and the venous blood was took out from the venas which was cannulizated. The amount of venous blood flow was measured by using an electromagnetic blood flow meter and next measured by using drop-counter by measuring the number of drops of blood per 10 seconds.
The increasing effect of cerebral blood flow was calculated by comparing the number of blood drops in 30 seconds at the peak of increasement shown before and after the administration of compound to be tested. The each of compounds to be tested was dissolved in dimethylformamide and diluted with physiological saline solution and administered through a cannule being inserted into the profunda femoris vein.

[2] = test system: Gold blatt type renoprival hypertension rats (RHR); test: Hypotensive effect, Tail-cuff method, RHR; format: in vivo, rat; conditions: 30 mg/kg oral, mean value ± standard deviation
Description: Hypotensive effect of the compounds were measured by determining the maximum blood pressure of the test animals according to a procedure of Tail-cuff method.
Test animals used were the following two types.
(1) Gold blatt type renoprival hypertension rats (RHR)
Wistar strain male rats having, 160-180 g of body weight, were anesthetized with ether and the left-side renal artery was pluged with a silver clip having 0.2 mm inside diameter, while the right-side renal artery was kept as it was without operation. Four (4) weeks after the operation, rats having the maximum blood pressure over 150 mmHg were selected and used as test animals which were abstained from food for overnight.
Each of compounds to be tested were administered orally and the blood pressure was measured before the administration and 1, 2, 4, 6 and 8 hours after the administration. The blood pressure was measured by using Recorder (Rectihoriz type 8S, San-ei Instrument) and Electrosthygmomanometer PE-300 (Macro Bio-systems, Houston, Tex.).

Wistar strain male rats = test: Test of increasing effect of heart rate; format: in vivo, rat; conditions: 30 mg/kg oral, 60 minutes after the administration
Description: Wistar strain male rats, having 180-230 g of body weight, were abstained from food for 24 hours, the electrocardiograms introduced from the second induction period were recorded on oscillograph. The heart rate was calculated from the electrocardiograms by observing them for 10 seconds several times. […] 60 Minutes after the administration, the heart rate was measured and increasing effect of the heart rate was calculated. Generally, an average heart rate of an usual Wistar strain male rat is about 320 beat/minute.

O=C(CCCOc1ccc2[nH]c(=O)ccc2c1)N(CCO)C1CCCCC1 [No. 1, 6-{3-[N-(2-hydroxyethyl)-N-cyclohexylaminocarbonyl]propoxy}carbostyril]
inhibition at 100 µM ([1]; concentration of the test compound solution 10^-4 mole): 100% | inhibition at 10 µM ([1]; concentration of the test compound solution 10^-5 mole, read-out: Inhibition effect on ADP-induced aggregation): 86% | inhibition at 1 µM ([1]; concentration of the test compound solution 10^-6 mole, read-out: Inhibition effect on ADP-induced aggregation): 45% | Increasing effect of cerebral blood flow (bastard dog): 89.8% | Maximum blood pressure after the administration (difference) ([2]; 1 hour): -27.0 ± 14.0 mmHg | Maximum blood pressure after the administration (difference) ([2]; 2 hours): -28.6 ± 16.4 mmHg | Maximum blood pressure after the administration (difference) ([2]; 4 hours): -32.4 ± 15.2 mmHg | Maximum blood pressure after the administration (difference) ([2]; 6 hours): -35.0 ± 11.5 mmHg | Maximum blood pressure after the administration (difference) ([2]; 8 hours): -41.3 ± 17.2 mmHg | Increasing effect of heart rate (Wistar strain male rats): 42 Beat/min.
